Data set [1] can be described thus: Microsomal stability, mouse. As to conditions: for CLint in vivo: scaled up using PBSF. The class given is in vitro ADME. Here is the method: (§1) The metabolic stability assay was performed by incubating compounds individually (0.8, 4, or 20 µM) with mouse, rat, dog and human liver microsomes (Fisher, 0.5 mg/mL protein concentration) at 37 °C. The metabolic reaction was initiated by the addition of a NADPH-regenerating system and quenched at various time points by the addition of acetonitrile according to a published method.
(§2) The remaining concentration of each compound was measured as a ratio of peak area to the internal standard. The log peak area ratio was plotted vs. time (h), and the slope was determined to calculate the elimination rate constant [k = (− 2.303) * slope]. If deviation from first order kinetics was evident, only the initial linear portion of the plot was used to determine the rate constate, k. The half-life (h) was calculated as t1/2 = 0.693/k. Intrinsic clearance in vitro was calculated as CLintin vitro = (1000)*(0.693/t1/2*60)/0.5, where microsomal concentration in the reaction solution was 0.5 mg/mL; 1000 and 60 are scaling factors for volume (µL) and time (min), respectively. The intrinsic in vitro clearance was scaled to the intrinsic in vivo clearance using physiology based scaling factor (PBSF): CLint in vivo= CLint in vitro *PBSF: (microsome protein/gram liver) * (gram liver/kg b.w.), with PBSF: 47 (mouse), 47(rat), 58 (dog), 32 (human); and liver weight proportions: 54.9 (mouse), 36.6 (rat), 32.9 (dog) 25.7 (human).

The nature of data set [2]: Microsomal stability, rat. The class given is in vitro ADME. As to conditions: for CLint in vivo: scaled up using PBSF. Here is the method: as §1, §2
Data set [3] is described as follows: Microsomal stability, dog. The class given is in vitro ADME. As to conditions: for CLint in vivo: scaled up using PBSF. As to the method: as §1, §2
Data set [4] concerns the target T1, CYP2C19 (Homo sapiens, UniProt P33261).
T1 construct: purchased Cypex Ltd (Bactosomes)
Kind of data set: CYP450 inhibition, CYP2C19. The class given is in vitro ADME.

In data set [5] the target is T2, CYP3A4 (Homo sapiens, UniProt P08684).
T2 construct: purchased Cypex Ltd (Bactosomes)
Kind of data set: CYP450 inhibition, CYP3A4. The class given is in vitro ADME.

The nature of data set [6]: Mouse plasma pharmacokinetics, single PO or IV dose. The class given is in vivo, female C57BL/6 mice. Conditions: for bioavailability: po, read-out: Mouse F (oral bioavailability). An excerpt:
Studies were undertaken to determine the plasma pharmacokinetics of SJ733 and SJ311. These studies included: (i) single oral gavage (PO) or intravenous (IV) dose administration to female C57BL/6 mice; (ii) single PO or IV dose administration to male Sprague Dawley (SD) rats; (iii) single PO or IV dose administration to male beagle dogs; (iv) toxicokinetic (TK) study following single PO administration to male SD rats. The PO and IV formulation used for mouse studies at SJCRH was 1% hydroxypropyl-beta-cyclodextrin (w/v), 10% ethanol (v/v), 10% propylene glycol (v/v), 40% PEG-400 (v/v) and 39% PBS (pH 7.4) isotonic (v/v). Compounds were dosed orally as suspensions, and intravenously as filtered solutions. Compound concentrations were confirmed post filtration using UV spectroscopy. The IV formulation used for rat studies (Monash University) was the same as that used for mice. For PO dosing to rats (Monash University) at 2 mg/kg, a suspension formulation was used containing 0.5% (w/v) hydroxypropyl methylcellulose, 0.5% (v/v) benzyl alcohol and 0.4% (v/v) Tween 80. The formulation used for rat studies at SRI (PO, high dose) was the same as that used in mouse PK studies. The formulation for the high dose TK study at SRI was 0.5% methylcellulose in sterile water. The formulation used for dog studies was the same as that used in mouse PK studies. The PO and IV PK of SJ733 and SJ311 were studied in female C57BL/6 mice. Mice had access to water and food ad libitum throughout the pre- and post-dose sampling period. Doses were administered at 15 mg/kg for IV and 10–200 mg/kg for PO with 20 mice in each dosage group. Two samples were taken from each mouse, with the first sample being a retro-orbital bleed (~ 200 µL) at the indicated time point (5, 15, 30 min, 1, 4, 24 h) and the second being terminal cardiac puncture (~ 500 µL) at the indicated time point (usually 48 h). EDTA disodium was used as anticoagulant and added to whole blood (10% volume of EDTA for 1% w/v final concentration) followed by centrifugation at 13,000 rpm for 2 min. Plasma was collected and stored frozen at -20 °C until analysis. For studies at SJCRH, all blood samples were kept on wet ice after collection and processed to plasma within 30 min of collection. Plasma samples were kept on dry ice and transferred to ≤ − 20 °C until analysis. Mouse plasma samples were extracted via protein precipitation with cold acetonitrile. The detection of the SJ733, SJ311, and warfarin (IS) was conducted by LC–MS with SIR or LC–MS/MS with MRM detection. Aliquots (3 µL) were injected onto a Waters Acquity UPLC equipped with an ABI Sciex 6500 Qtrap MS/MS and separated using an Acquity BEH C18 column (50 × 2.1 mm, 1.7 µm) with a methanol–water gradient containing 0.1% formic acid. Plasma concentration time (Ct) data for SJ733 and SJ311 were grouped by nominal time point, and the mean Ct values were subjected to noncompartmental analysis (NCA) using Phoenix WinNonlin 8.1 (Certara USA, Inc., Princeton, NJ). For all experiments, the area under the Ct and first moment curves (AUC, AUMC) were estimated using the “linear up log down” method. The terminal phase was defined as at least three time points at the end of the Ct profile, and the elimination rate constant (Kel) was estimated using an unweighted log-linear regression of the terminal phase. The terminal elimination half-life (T1/2) was estimated as 0.693/Kel, and the AUC from time 0 to infinity ([…]) was estimated as the AUC to the last time point (AUClast) + Clast (predicted)/Kel with the […] similarly calculated. Additional parameters estimated included observed maximum concentration (Cmax), time of Cmax (Tmax), concentration at the last observed time point (Clast), time of Clast (Tlast), and the apparent oral terminal volume of distribution (V/F). The apparent oral clearance (CL/F), systemic clearance (CL) and volume of distribution at steady state (Vss) were all estimated using standard formulae [19].

Setting [7] is: mouse microsomes, 20, 4, 0.8 µM.
Setting [8] is: mouse plasma, single IV 15 mg/kg.
[9] abbreviates: mouse plasma, single PO 100 mg/kg.
Where [10] appears, read: mouse, single PO 100 mg/kg vs IV.
[11] abbreviates: female, C57BL/6, mouse, plasma, mouse, summary over the oral doses studied.
[12] abbreviates: female, C57BL/6, mouse plasma, single IV 15 mg/kg, read-out: Half-life.
Setting [13] is: mouse plasma, single PO 10 mg/kg.

Structures are written as SMILES. “And” between values parts separate entries of the source, which are not always exact repeats. Equal entries are not always repeated. Where two headings read alike, the source gives them in different places. Some results are limits rather than exact numbers.

By Cmax is commonly meant the peak of the concentration-time curve. What is called CL/F is the apparent clearance, not corrected for the fraction that reaches the circulation. A word on the Tmax: it is the time from dosing to the highest level. Broadly, the bioavailability is dose-corrected exposure relative to a reference, in per cent. Broadly, the inhibition is the share of the control response that was lost under treatment. Low values mean a weak effect, high ones a strong effect.

T1 sequence (P33261 whole entry): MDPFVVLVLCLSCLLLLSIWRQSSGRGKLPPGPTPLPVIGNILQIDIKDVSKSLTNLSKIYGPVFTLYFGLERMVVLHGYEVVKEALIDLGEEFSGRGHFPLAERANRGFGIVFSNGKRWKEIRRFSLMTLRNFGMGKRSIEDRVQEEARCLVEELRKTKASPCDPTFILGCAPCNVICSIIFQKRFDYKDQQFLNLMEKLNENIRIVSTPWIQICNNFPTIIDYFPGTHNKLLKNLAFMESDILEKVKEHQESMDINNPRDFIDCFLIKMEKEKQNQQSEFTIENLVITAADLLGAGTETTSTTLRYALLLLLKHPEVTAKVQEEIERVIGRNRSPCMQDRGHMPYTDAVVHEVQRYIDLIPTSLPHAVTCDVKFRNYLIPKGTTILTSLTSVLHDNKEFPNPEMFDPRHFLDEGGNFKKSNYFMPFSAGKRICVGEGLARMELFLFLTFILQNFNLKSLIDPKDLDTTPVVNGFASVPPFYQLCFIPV
T2 sequence (P08684 whole entry): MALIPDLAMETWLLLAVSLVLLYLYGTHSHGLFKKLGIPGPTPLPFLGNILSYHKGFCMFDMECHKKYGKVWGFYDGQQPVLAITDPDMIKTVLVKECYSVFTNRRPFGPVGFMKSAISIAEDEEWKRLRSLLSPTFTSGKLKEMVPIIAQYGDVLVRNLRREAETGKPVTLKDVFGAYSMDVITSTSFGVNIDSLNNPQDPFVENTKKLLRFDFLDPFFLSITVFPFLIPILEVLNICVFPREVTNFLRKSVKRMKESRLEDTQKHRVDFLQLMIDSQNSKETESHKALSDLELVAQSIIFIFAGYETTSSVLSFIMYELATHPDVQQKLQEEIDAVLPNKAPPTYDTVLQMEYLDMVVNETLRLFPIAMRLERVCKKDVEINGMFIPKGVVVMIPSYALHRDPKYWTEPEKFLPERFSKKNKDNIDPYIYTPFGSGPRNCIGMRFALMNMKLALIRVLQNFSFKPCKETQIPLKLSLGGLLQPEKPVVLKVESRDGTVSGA

In data set [1] (setting [7]), `N#Cc1cc(NC(=O)C2c3ccccc3C(=O)N(CC(F)(F)F)C2c2cn[nH]c2)ccc1F` (racemic) [(r)-SJ311] came in with a CLint in vitro of under 7 µl/min/mg protein and a CLint in vivo of under 13.5 mL/min/kg. For the same compound, in data set [2] (rat microsomes, 20, 4, 0.8 µM), the CLint in vitro is reported as under 7 µl/min/mg protein and the CLint in vivo was under 11.7 mL/min/kg. In data set [3] (dog microsomes, 20, 4, 0.8 µM), this compound registered a CLint in vitro of under 7 µl/min/mg protein and a CLint in vivo of under 8.3 mL/min/kg. Besides, the “inhibition of CYP2C19” value in data set [4] (10 µM, probe substrate S-mephenytoin, replicate measurements) stood at 12%. Moreover, in data set [5] (10 µM, probe substrate Midazolam, replicate measurements), the “inhibition of CYP3A4” value was 54% and 52%. In data set [6] (setting [8]), this compound showed an AUCinf of 20.7 µM·h, a CL of 27.2 mL/min/kg, a Cmax of 13.4 µM and a Half-life of 1.56 h. Further, the Vss in data set [6] (setting [8]) amounted to 2.11 L/kg. In data set [6] (setting [9]), this compound returned an AUCinf of 42 µM·h, a CL/F of 89 mL/min/kg, a Cmax of 10.5 ± 5.3 µM and a Half-life of 4.20 h. Besides, in data set [6] (setting [9]), the Tmax is reported as 0.5 h and the V/F was 32.4 L/kg. The same compound had a F in data set [6] (setting [10]) of 23.1%.
Regarding `N#Cc1cc(NC(=O)[C@H]2c3ccccc3C(=O)N(CC(F)(F)F)[C@@H]2c2cn[nH]c2)ccc1F` [(+)-SJ311], the CLint in data set [1] (mouse microsomes, 0.8 µM) is under 7 µl/min/mg protein; in data set [2] (rat microsomes, 0.8 µM), under 7 µl/min/mg protein; in data set [3] (dog microsomes, 0.8 µM), under 7 µl/min/mg protein. Besides, the t1/2 is on record as over 4 h in data set [1] (mouse microsomes, 0.8 µM); over 4 h in data set [2] (rat microsomes, 0.8 µM); over 4 h in data set [3] (dog microsomes, 0.8 µM).
Consider `N#Cc1cc(NC(=O)[C@H]2c3ccccc3C(=O)N(CC(F)(F)F)[C@@H]2c2cccnc2)ccc1F` (racemic) [SJ733], for which the “CYP2C19 inhibition, in words” value in data set [4] is reported as “weakly inhibited”. Further, in data set [5], the “CYP3A4 inhibition, in words” value was “moderate inhibitors”. The bioavailability in data set [6] (setting [11]) lay within 65 to 81%. Besides, the clearance in data set [6] (female, C57BL/6, mouse, plasma, observed in mice, read-out: in vivo clearance (converted)) is about 50 mL/min/kg. Further, the Half-life in data set [6] (setting [12]) was in the range of 1.38 to 1.65 h.
Consider `N#Cc1cc(NC(=O)[C@H]2c3ccccc3C(=O)N(CC(F)(F)F)[C@@H]2c2cn[nH]c2)ccc1F` [SJ311], for which the “CYP2C19 inhibition, in words” value in data set [4] was “weak inhibitor”. In addition, the “CYP3A4 inhibition, in words” value in data set [5] is “moderate inhibitors”. In data set [5] (human, pH 7.4, 10 µM, probe substrate Midazolam, replicate measurements), the inhibition at 10 µM amounted to 53%. Besides, in data set [6] (setting [11]), the bioavailability fell in the range of 22 to 23%. Also, the Half-life in data set [6] (setting [12]) was 1.38 to 1.56 h. Further, the “Mouse F (oral bioavailability)” value in data set [6] (mouse, summary over the oral doses studied) came out at 23%.
Regarding `N#Cc1cc(NC(=O)[C@H]2c3ccccc3C(=O)N(CC(F)(F)F)[C@@H]2c2cccnc2)ccc1F` [(+)-SJ733], the CLint in data set [1] (mouse microsomes, 0.8 µM) was 35.4 ± 2.1 µl/min/mg protein; in data set [2] (rat microsomes, 0.8 µM), under 7 µl/min/mg protein; in data set [3] (dog microsomes, 0.8 µM), under 7 µl/min/mg protein. In addition, the t1/2 in data set [1] (mouse microsomes, 0.8 µM) was 0.7 ± 0.1 h; in data set [2] (rat microsomes, 0.8 µM) it was over 4 h; in data set [3] (dog microsomes, 0.8 µM) it was over 4 h. Moreover, the CLint in vitro is given as 33.9 ± 1.3 µl/min/mg protein in data set [1] (mouse microsomes, 0.8 µM, independent replicate to Table 4); 27.2 ± 1.3 µl/min/mg protein in data set [1] (mouse microsomes, 4 µM, independent replicate to Table 4); 15.9 ± 2.2 µl/min/mg protein in data set [1] (mouse microsomes, 20 µM, independent replicate to Table 4); under 7 µl/min/mg protein in data set [2] (rat microsomes, 0.8 µM, independent replicate to Table 4); under 7 µl/min/mg protein in data set [2] (rat microsomes, 4 µM, independent replicate to Table 4); under 7 µl/min/mg protein in data set [2] (rat microsomes, 20 µM, independent replicate to Table 4). The CLint in vitro in data set [3] (dog microsomes, 0.8 µM, independent replicate to Table 4) is reported as under 7 µl/min/mg protein; in data set [3] (dog microsomes, 4 µM, independent replicate to Table 4) it was under 7 µl/min/mg protein; in data set [3] (dog microsomes, 20 µM, independent replicate to Table 4), under 7 µl/min/mg protein. Also, the CLint in vivo was 79.3 ± 3.0 mL/min/kg in data set [1] (mouse microsomes, 0.8 µM); 63.8 ± 2.9 mL/min/kg in data set [1] (mouse microsomes, 4 µM); 37.3 ± 5.3 mL/min/kg in data set [1] (mouse microsomes, 20 µM); under 11.7 mL/min/kg in data set [2] (rat microsomes, 0.8 µM); under 11.7 mL/min/kg in data set [2] (rat microsomes, 4 µM); under 11.7 mL/min/kg in data set [2] (rat microsomes, 20 µM). Also, the CLint in vivo in data set [3] (dog microsomes, 0.8 µM) was under 8.3 mL/min/kg; in data set [3] (dog microsomes, 4 µM) it was under 8.3 mL/min/kg; in data set [3] (dog microsomes, 20 µM), under 8.3 mL/min/kg. Besides, the AUCinf was determined as 4.27 µM·h in data set [6] (setting [13]) and 53 µM·h in data set [6] (setting [9]). In addition, the values for the CL/F in data set [6] (setting [13]) and in data set [6] (setting [9]) were 83.3 mL/min/kg and 67 mL/min/kg, respectively. Moreover, the peak concentration (Cmax) amounted to 1.38 ± 0.21 µM in data set [6] (setting [13]) and 11.7 ± 1.2 µM in data set [6] (setting [9]). Further, the results for the Half-life in data set [6] (setting [13]) and in data set [6] (setting [9]) were 3.63 h and 3.17 h, respectively. Further, the Tmax in data set [6] (setting [13]) and in data set [6] (setting [9]) was 0.5 h each time. In data set [6] (setting [13]), this compound yielded a V/F of 26.2 L/kg. The F is on record as 65% in data set [6] (mouse, single PO 10 mg/kg vs IV) and 80.8% in data set [6] (setting [10]).

The values are drawn from article PMC7893776, “Selecting an anti-malarial clinical candidate from two potent dihydroisoquinolones” (Malaria Journal, 2021).
